One data set deals with PC3-M (prostate). As to the kind of experiment: Antiproliferative activity (growth inhibition), PC3-M cells. In kind it is cell-based. To be noted: Homo sapiens, PC-3M, read-out: IC50 PC3-M (prostate). As to the method: (§1) The antiproliferative activity of cis 9,10-dehydroepothilone D and trans 9,10-dehydroepothilone D was assessed in vitro using a panel of human cancer cell lines.

Another data set deals with HCT-116 (colon). As to the kind of experiment: Antiproliferative activity (growth inhibition), HCT-116 cells. It is filed as cell-based. To be noted: Homo sapiens. As for the experimental part:
as §1

The target in another data set is porcine tubulin (Sus scrofa, UniProt P02554). Put plainly: Induction of porcine tubulin polymerization. It is filed as biochemical.
Sequence of porcine tubulin (P02554 whole entry): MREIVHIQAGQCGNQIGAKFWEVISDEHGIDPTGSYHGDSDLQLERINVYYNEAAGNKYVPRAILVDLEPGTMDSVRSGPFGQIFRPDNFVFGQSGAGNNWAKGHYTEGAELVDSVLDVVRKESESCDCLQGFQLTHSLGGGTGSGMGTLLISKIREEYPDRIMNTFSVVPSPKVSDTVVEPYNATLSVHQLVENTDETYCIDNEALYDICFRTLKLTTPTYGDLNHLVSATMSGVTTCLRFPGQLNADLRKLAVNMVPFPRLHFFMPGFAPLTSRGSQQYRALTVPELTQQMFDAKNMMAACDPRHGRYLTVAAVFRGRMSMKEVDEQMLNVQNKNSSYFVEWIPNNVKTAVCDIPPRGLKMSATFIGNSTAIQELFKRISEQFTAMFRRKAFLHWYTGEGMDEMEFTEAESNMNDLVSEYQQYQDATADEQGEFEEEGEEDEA
Sequence of porcine tubulin (P02550 whole entry partner): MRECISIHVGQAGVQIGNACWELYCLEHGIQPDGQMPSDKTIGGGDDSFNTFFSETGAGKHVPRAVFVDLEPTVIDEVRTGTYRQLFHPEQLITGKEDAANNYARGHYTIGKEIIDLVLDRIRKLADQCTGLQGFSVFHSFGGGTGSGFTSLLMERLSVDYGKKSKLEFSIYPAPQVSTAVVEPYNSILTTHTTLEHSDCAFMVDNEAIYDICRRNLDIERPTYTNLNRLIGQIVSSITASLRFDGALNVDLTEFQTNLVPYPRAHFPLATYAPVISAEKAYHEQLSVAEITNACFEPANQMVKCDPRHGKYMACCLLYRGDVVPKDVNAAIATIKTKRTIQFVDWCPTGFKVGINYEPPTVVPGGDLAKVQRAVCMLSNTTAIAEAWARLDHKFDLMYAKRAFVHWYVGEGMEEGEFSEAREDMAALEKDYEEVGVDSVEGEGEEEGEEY
In another data set the test system is A549 (lung). As to the kind of experiment: Antiproliferative activity (growth inhibition), A549 cells. It is filed as cell-based. To be noted: Homo sapiens. As to the method: as §1
Another data set concerns KB-31 (Epidermoid). Put plainly: Antiproliferative activity (growth inhibition), KB-31 cells. The conditions noted are these: Homo sapiens. In kind it is cell-based. As for the experimental part:
as §1

The test system of data set [1] is KB-8511 (Epidermoid), Pgp-overexpressing sub-line of KB-31. As to the kind of experiment: Antiproliferative activity (growth inhibition), KB-8511 cells. To be noted: Homo sapiens. As to the method: as §1
Data set [2] has as its system panel of human cancer cell lines. Put plainly: Antiproliferative activity across the cell line panel. It is filed as cell-based. The source says:
Known epothilones have significant biological activity.

For a further data set, the system named is MCF-7 (breast). As to the kind of experiment: Antiproliferative activity (growth inhibition), MCF-7 cells. To be noted: Homo sapiens. It is filed as cell-based. As to the method:
as §1

For data set [3], the system named is Pgp-expressing MDR neuroblastoma cell line (SK-N SH). To be noted: cited from earlier work.
The next data set deals with tubulin. To be noted: Merck comparison with Taxol; cited from earlier work.
Data set [4] deals with subcutaneous implantations of tumor tissues. The conditions noted are these: mice, subcutaneous tumor implants, Sloan Kettering; cited from earlier work.
Data set [5] relates to Potorous tridactylis kidney epithelial (PtK2) cells. To be noted: indirect immunofluorescence; cited from earlier work.
Data set [6] deals with IFN-γ-treated murine-macrophage. The conditions noted are these: IFN-γ-treated murine macrophages; cited from earlier work.
Where [7] appears, read: mean of three independent experiments.
Setting [8] is: HCT-116, mean of three independent experiments, read-out: IC50 HCT-116 (colon).
The mark [9] stands for this setting: 5 μM compound, relative to the effect of Epothilone B at 25 μM defined as 100%.
[10] abbreviates: A549, mean of three independent experiments, read-out: IC50 A549 (lung).
Where [11] appears, read: KB 3-1, Table 1, mean of three independent experiments, read-out: IC50 KB-31 (Epidermoid).
Where [12] appears, read: KB 3-1, read-out: IC50 KB-8511 (Epidermoid), Table 1, Pgp-overexpressing sub-line, mean of three independent experiments.
[13] abbreviates: MCF7, mean of three independent experiments, read-out: IC50 MCF-7 (breast).
[14] abbreviates: antiproliferative potency, cell line panel of Table 1.
Setting [15] is: Table 2, under the conditions used for Table 1, unit not given.
Where [16] appears, read: KB 3-1, Table 2, under the conditions used for Table 1 (there nM), unit inferred, read-out: IC50 KB-31 (Epidermoid).
Where [17] appears, read: KB 3-1, read-out: IC50 KB-8511 (Epidermoid).
Where [18] appears, read: KB 3-1, read-out: IC50 KB-8511 (Epidermoid), Table 2, under the conditions used for Table 1 (there nM), unit inferred.
The mark [19] stands for this setting: HCT-116, read-out: IC50 HCT-116 (colon).
[20] abbreviates: A549, read-out: IC50 A549 (lung).
Setting [21] is: KB 3-1, read-out: IC50 KB-31 (Epidermoid), Table 2, under the conditions used for Table 1 (there nM), unit inferred.
The mark [22] stands for this setting: MCF7, read-out: IC50 MCF-7 (breast).

Like-named read-outs stand apart in the source and are kept apart here.

For orientation: IC50 means the midpoint of a concentration-inhibition curve. With `C/C1=C\C[C@@H](/C(C)=C/c2csc(C)n2)OC(=O)C[C@H](O)C(C)(C)C(=O)[C@H](C)[C@@H](O)[C@@H](C)/C=C/C1` [trans 9,10, trans 12,13-dehydroepothilone D], the IC50 turned out to be 147 nM in the data set on PC3-M (prostate) (setting [7]); 110 nM in the data set on HCT-116 (colon) (setting [8]); 109 nM in the data set with A549 (lung) (setting [10]); 104 nM with KB-31 (Epidermoid) (setting [11]); 70.4 nM in data set [1] (setting [12]); 95 nM in the data set on MCF-7 (breast) (setting [13]). Also, on porcine tubulin (setting [9]), the “Tubulin Polym.” value is 36%. Besides, in data set [2] (average over the cell line panel), the “average IC50 for growth inhibition, fold higher than cis 9,10-dehydroepothilone D” value worked out at 1.36 fold.
Consider `C/C1=C/C[C@@H](/C(C)=C/c2csc(C)n2)OC(=O)C[C@H](O)C(C)(C)C(=O)[C@H](C)[C@@H](O)[C@@H](C)/C=C\C1` [9,10-cis-Dehydroepothilone D, 9,10-dehydrodes-epoxyepothilone B], for which the IC50 in the data set with PC3-M (prostate) (setting [7]) came out at 146 nM; in the data set on HCT-116 (colon) (setting [8]), 102 nM; in the data set on A549 (lung) (setting [10]), 109 nM; in the data set with KB-31 (Epidermoid) (setting [11]) it was 59.4 nM; in data set [1] (setting [12]) it was 28.5 nM; in the data set on MCF-7 (breast) (setting [13]), 72 nM. Besides, on porcine tubulin (setting [9]), the “Tubulin Polym.” value was found to be 56%. For the same compound, in data set [2] (setting [14]), the “fold less potent than epothilone B” value was 330- to 670 fold. Besides, the “fold less potent than natural epothilone D” value in [2] (setting [14]) is on record as 20- to 30 fold.
Consider `C/C1=C/C[C@@H](/C(C)=C/c2csc(C)n2)OC(=O)C[C@H](O)C(C)(C)C(=O)[C@H](C)[C@@H](O)[C@@H](C)C(=O)OC1` [Bislactone], for which, at porcine tubulin (setting [15]), the “Tubulin Polym.” value came to 21.4. Also, the concentration for half-maximal inhibition (IC50) with KB-31 (Epidermoid) (setting [16]) turned out to be 25.5 nM; in [1] (setting [17]), 25.2 nM.
Regarding `CC(=O)O[C@H]1C(=O)[C@@]2(C)[C@H]([C@H](OC(=O)c3ccccc3)[C@]3(O)C[C@H](OC(=O)[C@H](O)[C@@H](NC(=O)c4ccccc4)c4ccccc4)C(C)=C1C3(C)C)[C@]1(OC(C)=O)CO[C@@H]1C[C@@H]2O` [Paclitaxel (Taxol), Paclitaxel], the concentration for half-maximal inhibition (IC50) in the data set on PC3-M (prostate) (setting [7]) stood at 6.62 nM; in the data set with HCT-116 (colon) (setting [8]), 4.88 nM; in the data set on A549 (lung) (setting [10]), 5.19 nM; in the data set with KB-31 (Epidermoid) (setting [11]) it was 2.67 nM; in the data set on KB-31 (Epidermoid) (setting [16]) it was 2.9 nM; in [1] (setting [12]), 842 nM. The figures for the concentration for half-maximal inhibition (IC50) (in data set [1] (setting [18]); with MCF-7 (breast) (setting [13])) were 661 nM and 3.26 nM, respectively. Also, the “Tubulin Polym.” value on porcine tubulin (setting [9]) came out at 53%; at porcine tubulin (setting [15]) it was 38.9.
Take `C/C1=C/C[C@@H](/C(C)=C/c2csc(C)n2)OC(=O)C[C@H](O)C(C)(C)C(=O)[C@H](C)[C@@H](O)[C@@H](C)CCC1` [Epothilone D]: the 50% inhibitory concentration (IC50) in the data set with PC3-M (prostate) was 7.4 nM; with HCT-116 (colon) (setting [19]), 4.48 nM; in the data set with A549 (lung) (setting [20]), 4.62 nM; in the data set with KB-31 (Epidermoid) (KB 3-1, read-out: IC50 KB-31 (Epidermoid), Table 1, mean of three independent experiments), 1.94 nM; in the data set on KB-31 (Epidermoid) (setting [21]) it was 1.94 nM; in [1] (setting [17]) it was 1 nM. The IC50 in the data set on MCF-7 (breast) (setting [22]) is 2.31 nM. Moreover, the “Tubulin Polym.” value at porcine tubulin (setting [9]) is given as 88%; at porcine tubulin (setting [15]), 62.3.
Consider `C/C(=C\c1csc(C)n1)[C@@H]1CC2O[C@@H]2CCC[C@H](C)[C@H](O)[C@@H](C)C(=O)C(C)(C)[C@@H](O)CC(=O)O1` (stereo partly drawn) [Epothilone A], for which, in [3], the “activity against Pgp-expressing MDR neuroblastoma cell line” value is given as “active”. In addition, the “potency as tubulin polymerization agent (rank order)” value with tubulin is recorded as “epothilone B>epothilone A>Taxol”.
As for `C/C(=C\c1csc(C)n1)[C@@H]1C[C@@H]2O[C@]2(C)CCC[C@H](C)[C@H](O)[C@@H](C)C(=O)C(C)(C)[C@@H](O)CC(=O)O1` [Epothilone B], the “in vivo antitumor effect compared with Taxol” value in data set [4] is “superiority”. Further, the “formation of microtubule bundles” value in [5] is recorded as “most active, inducing extensive formation of microtubule bundles”. Further, the IC50 with PC3-M (prostate) was determined as 0.32 nM; with HCT-116 (colon) (setting [19]), 0.34 nM; in the data set on A549 (lung) (setting [20]), 0.16 nM; with KB-31 (Epidermoid) (setting [21]), 0.24 nM; in data set [1] (setting [12]), 0.16 nM; in [1] (setting [18]), 0.15 nM. Besides, the 50% inhibitory concentration (IC50) with MCF-7 (breast) (setting [22]) was 0.29 nM. Also, the “Tubulin Polym.” value at porcine tubulin (setting [9]) was found to be 95%; at porcine tubulin (setting [15]), 81.4. For the same compound, the “potency as tubulin polymerization agent (rank order)” value in the data set on tubulin is recorded as “epothilone B>epothilone A>Taxol”. For the same compound, in data set [6], the “macrophage stimulatory activity as measured by nitric oxide release” value was “lacked any IFN-γ-treated murine-macrophage stimulatory activity”.
